Some test systems named below: 786-0; DU-145; HCC 2998; HL-60; HOP-62; HT-29; MDA-MB-231; MDA-MB-435; OVCAR-4; SF-268; SF-295; SK-OV-3; SN12C; SNB-75; TK-10; U-251; UO-31; T47D; Malme-3M; SR.
What all share (test): NCI anticancer screen, dose series, 48 h

Here are results for nine compounds from ChEMBL document CHEMBL1201862, “PubChem BioAssay data set” (2004).

Each structure is given as a SMILES string.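 Dose response: 5 concentrations. Exposure: 48 h. Format: 96-well plates. Endpoint: linear interpolation; highest concentration if not reached. The concentration for 50% growth inhibition is given as GI50.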 Activity calls are given as the source filed them. Rule as the data show it: active = GI50 up to about 1.1 µM and inactive = higher.

In the case of `CSc1nc(-c2cc3c(c(SC)n2)CCCCC3)cc2c1CCCCC2`, the GI50 with 786-0 is > 100 µM (inactive); in the assay with DU-145, > 100 µM (inactive); with HCC 2998, > 100 µM (inactive); with HL-60, > 100 µM (inactive); in the assay on HOP-62, 56.9 µM (inactive); in the assay on HT-29, > 100 µM (inactive). Besides, the GI50 was > 100 µM (inactive) with MDA-MB-231; > 100 µM (inactive) with MDA-MB-435; > 100 µM (inactive) with OVCAR-4; 50.7 µM (inactive) with SF-268; > 100 µM (inactive) in the assay with SF-295; 50.1 µM (inactive) with SK-OV-3. Moreover, the GI50 is > 100 µM (inactive) in the assay on SN12C; 34.3 µM (inactive) in the assay on SNB-75; > 100 µM (inactive) in the assay with TK-10; > 100 µM (inactive) in the assay on U-251; > 100 µM (inactive) in the assay with UO-31.

With `CC(=O)N1CC(C)(C)c2c(C)c(O)c(C)c(C)c21`, the GI50 in the assay on 786-0, in the assay with DU-145, with HCC 2998, with HL-60, with HOP-62 and in the assay on HT-29 was > 100 µM (inactive) in each case. Also, the GI50 with MDA-MB-231, in the assay on MDA-MB-435, in the assay on OVCAR-4, in the assay with SF-268, with SF-295 and in the assay with SK-OV-3 was > 100 µM (inactive) throughout. For the same compound, the GI50 was > 100 µM (inactive) in the assay with SN12C; 54.5 µM (inactive) in the assay with SNB-75; > 100 µM (inactive) with T47D; > 100 µM (inactive) in the assay on TK-10; > 100 µM (inactive) with U-251; > 100 µM (inactive) in the assay with UO-31.

Regarding `CN1CCc2c(sc3nc(Nc4ccccc4)n(N)c(=O)c23)C1`, the GI50 is > 100 µM (inactive) with 786-0; > 100 µM (inactive) in the assay on DU-145; 19.8 µM (inactive) with HL-60; > 100 µM (inactive) in the assay on HOP-62; 43.8 µM (inactive) with HT-29; > 100 µM (inactive) in the assay with MDA-MB-231. For the same compound, the GI50 with SF-268 was > 100 µM (inactive); in the assay on SF-295 it was 63.1 µM (inactive); in the assay with SN12C, > 100 µM (inactive); in the assay on T47D it was > 100 µM (inactive); in the assay with TK-10, > 100 µM (inactive); with UO-31, > 100 µM (inactive).

Consider `COc1cc(C2C3=C(COC3=O)OC(C)(C)Oc3cc4c(cc32)OCO4)cc(OC)c1OC` (stereo unspecified), for which the GI50 with 786-0 was 0.293 µM (active); in the assay on DU-145, 0.34 µM (active); in the assay with HCC 2998 it was 0.535 µM (active); in the assay with HL-60 it was 0.236 µM (active); in the assay with HOP-62, 0.509 µM (active); in the assay on HT-29, 0.258 µM (active). The GI50 is 0.358 µM (active) in the assay on MDA-MB-231; 0.167 µM (active) in the assay with MDA-MB-435; > 37.8 µM (inactive) with Malme-3M; 3.3 µM (inactive) in the assay with OVCAR-4; 0.405 µM (active) in the assay with SF-268; 0.222 µM (active) in the assay with SF-295. In addition, the GI50 with SK-OV-3 is 0.476 µM (active); in the assay on SN12C it was 0.466 µM (active); in the assay on SNB-75, 0.253 µM (active); with SR, 0.195 µM (active); with U-251, 0.447 µM (active); with UO-31, 0.426 µM (active).

Regarding `O=C(/C=C/c1ccccc1)CCC1C(=O)NC(=S)NC1=O`, the GI50 with 786-0, in the assay on DU-145, in the assay on HCC 2998, with MDA-MB-231, in the assay with MDA-MB-435 and in the assay with SF-268 was > 100 µM (inactive) throughout. For the same compound, the GI50 in the assay on SF-295, in the assay on SK-OV-3, with SN12C, in the assay on T47D, in the assay on U-251 and in the assay on UO-31 was > 100 µM (inactive) in each case.

In the case of `O=C1/C(=C/c2ccc([N+](=O)[O-])cc2)CCCc2ccccc21`, the GI50 with 786-0 is > 100 µM (inactive); in the assay on DU-145 it was > 100 µM (inactive); in the assay with HCC 2998, > 100 µM (inactive); in the assay with HL-60, > 100 µM (inactive); in the assay with HOP-62, 54.3 µM (inactive); in the assay on HT-29, > 100 µM (inactive). Besides, the GI50 is > 100 µM (inactive) in the assay with MDA-MB-231; > 100 µM (inactive) with MDA-MB-435; > 100 µM (inactive) in the assay on Malme-3M; > 100 µM (inactive) in the assay with OVCAR-4; 30.4 µM (inactive) in the assay on SF-268; 63.5 µM (inactive) with SF-295. The GI50 with SK-OV-3 is > 100 µM (inactive); in the assay with SN12C it was > 100 µM (inactive); with SNB-75, 83.4 µM (inactive); in the assay on SR it was > 100 µM (inactive); in the assay with TK-10, > 100 µM (inactive); with U-251 it was > 100 µM (inactive). In the assay on UO-31, the GI50 is > 100 µM (inactive).

For `COC(=O)C1=CC2C=CC(C1C(=O)OC)C1C(C(=O)OC)=C(C(=O)OC)C(C(=O)OC)=C(C(=O)OC)C21OC` (stereo unspecified), the GI50 in the assay with 786-0, in the assay on HCC 2998, in the assay on HL-60, in the assay on HOP-62, with HT-29 and in the assay with Malme-3M was > 100 µM (inactive) in each case. Moreover, the GI50 in the assay with OVCAR-4, with SF-268, in the assay on SF-295, in the assay on SK-OV-3, in the assay with SN12C and in the assay with SNB-75 was > 100 µM (inactive) throughout. For the same compound, the GI50 in the assay with SR, in the assay on TK-10, in the assay with U-251 and in the assay with UO-31 was > 100 µM (inactive) each time.

Turning to `CCOC(=O)C1=C(C)NC(=S)NC1c1ccccc1` (stereo unspecified), the GI50 is > 100 µM (inactive) with 786-0; > 100 µM (inactive) in the assay with HCC 2998; 71.8 µM (inactive) with HL-60; > 100 µM (inactive) with HOP-62; > 96.4 µM (inactive) with HT-29; > 100 µM (inactive) in the assay on Malme-3M. The GI50 with OVCAR-4 is 32.3 µM (inactive); in the assay with SF-268 it was > 100 µM (inactive); with SF-295, > 100 µM (inactive); in the assay on SK-OV-3, > 100 µM (inactive); with SN12C, > 100 µM (inactive); with SNB-75, > 100 µM (inactive). Moreover, the GI50 in the assay on SR is 21.8 µM (inactive); in the assay on TK-10, > 100 µM (inactive); in the assay with U-251 it was > 39.3 µM (inactive); with UO-31, 35.9 µM (inactive).

In the case of `O=C1CC(C(=O)N2CCCCC2)n2c(=O)n(-c3ccccc3)c(=O)n2C1` (stereo unspecified), the GI50 in the assay with 786-0, in the assay with DU-145, in the assay on HCC 2998, with HOP-62, with HT-29 and with MDA-MB-231 was > 100 µM (inactive) in each case. Also, the GI50 with Malme-3M, with SF-268, in the assay on SF-295, in the assay with SK-OV-3, in the assay on SNB-75 and with TK-10 was > 100 µM (inactive) each time. Further, the GI50 in the assay on UO-31 was > 100 µM (inactive).
